# Laboratory results: patent publication US20050191668A1, “Methods of using peroxisome proliferator-activated receptor alpha target genes” (priority 2004, published 2005)
# Tests used:
# Assay type in all cases: cell-based, human
# Pa9 gene = Pa9 gene expression by real-time RT-PCR in primary adipocytes; details: about 18-20 hours, vehicle control = 100
# Source text: (§1) Human hepatocyte HuH7 cells, which are epithelial cells of liver, were obtained from Japan Health Science Research Resources Bank (Osaka, Japan). Human primary adipocytes, which are connective tissue cells specialized for the synthesis and storage of fat, were obtained from Zen-Bio, Inc (Research Triangle Park, NC). Human primary skeletal muscle cells (SKMC) were obtained from Cambrex Bio Science (Walkersville, Md.). PPARα agonists, Wy14643 (Agatha, et al, 2000, Archives of Biochemistry and Biophysics 380:353-359) and fenofibrates were obtained from Cayman Chemical (Ann Arbor, Mich.) and Sigma (St Louis, Mo.), respectively.
# (§2) Human HuH7 cells were cultured in Dulbecco's Modified Eagle Medium with 10% Fetal Bovine Serum (Gibco, N.Y.). Cells were treated with charcoal-stripped, delipidated calf serum (5%) (Sigma, St Louis, Mo.) for about 4-18 hours. Then, cells were treated with different concentrations of PPARα agonist (Wy14643 or fenofibrates) for about 20-24 h. Human SKM cells were cultured in Skeletal Muscle Growth Medium (Cambrex Bio Science, Walkersville, Md.), and were treated with different concentrations of PPARα agonist (Wy14643 or fenofibrates) for about 18-20 hours. Human primary adipocytes were cultured in Preadipocyte Medium, (Cat #PM—1, Zen-Bio, Inc., Research Triangle Park, NC), and were treated with different concentrations of PPARα agonist (Wy14643 or fenofibrates) for about 18-20 hours.
# Total RNA was purified from cultured cells following the protocol provided by the manufacturer (Trizon method, Invitrogen Inc. Ca). The polymerase chain reaction (PCR) primers and fluorescent probes (TagMan probes) for Pa9, Pa13, and Pa21 were designed from GenBank sequences of accession numbers W30988, AB000584, and NM_080725, respectively. The primers and probes were designed using the software PrimerDesign (Applied Biosystems, Foster City, Calif.). The PCR primers for Pa9 were SEQ ID NO: 7, (5-[…]) and SEQ ID NO: 8 (5-[…]). […] The PCR primers for Pa13 were SEQ ID NO: 10 (5-[…], T) and SEQ ID NO: 11 (5-[…] T). […] The PCR primers for Pa21 were SEQ ID NO: 13 (5-[…] C) and SEQ ID NO: 14 (5-[…]). […]
# Reverse transcription (RT) and PCR were conducted in one step using “One-Step RT-PCR Master Mix Reagent” kit (Applied Biosystems, Foster City, Calif.) in ABI PRISM 7700 Sequence Detection System (Applied Biosystems). […] PCR data were collected by Ct value (the cycle number at which logarithmic PCR plots cross a calculated threshold line) according to the manufacturer's guidelines and the value was used to determine the Δ^Ct (Ct of the target gene minus the Ct of 18S ribosomal RNA controls). Relative mRNA level was calculated using the equation 2^−ΔΔCt as described previously (Heid et al., 1996, Genome Res. 6:986-994).
# Pa13 gene = Pa13 gene expression by real-time RT-PCR in primary skeletal muscle cells; details: about 18-20 hours, vehicle control = 100
# Source text: as §1, §2
# (§3) Total RNA was purified from cultured cells following the protocol provided by the manufacturer (Trizon method, Invitrogen Inc. Ca). The polymerase chain reaction (PCR) primers and fluorescent probes (TagMan probes) for Pa9, Pa13, and Pa21 were designed from GenBank sequences of accession numbers W30988, AB000584, and NM_080725, respectively. The primers and probes were designed using the software PrimerDesign (Applied Biosystems, Foster City, Calif.). The PCR primers for Pa9 were SEQ ID NO: 7, (5-[…]) and SEQ ID NO: 8 (5-[…]). […] The PCR primers for Pa13 were SEQ ID NO: 10 (5-[…], T) and SEQ ID NO: 11 (5-[…] T). […] The PCR primers for Pa21 were SEQ ID NO: 13 (5-[…] C) and SEQ ID NO: 14 (5-[…]). […] All primers and probes were synthesized by Keystone Labs (Camarillo, Calif.).
# (§4) Reverse transcription (RT) and PCR were conducted in one step using “One-Step RT-PCR Master Mix Reagent” kit (Applied Biosystems, Foster City, Calif.) in ABI PRISM 7700 Sequence Detection System (Applied Biosystems). Each reaction was performed in a total volume of 25 μl containing 40 ng of total RNA. The reaction condition was: 48° C. for 30 minutes, 60° C. for 30 minutes, 94° C. for 5 minutes, followed by 40 cycles of 94° C. for 20 seconds and 60° C. for 1 minute. The primers for 18S ribosomal RNA were developed and provided by Applied Biosystems. The measurement of human 18S ribosomal RNA was used as an internal control for normalization of measuring and loading errors. PCR data were collected by Ct value (the cycle number at which logarithmic PCR plots cross a calculated threshold line) according to the manufacturer's guidelines and the value was used to determine the Δ^Ct (Ct of the target gene minus the Ct of 18S ribosomal RNA controls). Relative mRNA level was calculated using the equation 2^−ΔΔCt as described previously (Heid et al., 1996, Genome Res. 6:986-994).
# Pa21 gene [1] = assay: Pa21 gene expression in SKM cells with siRNA-reduced PPARα expression; details: SKMU cells with reduced PPARα expression
# Source text: SiRNA oligos specific to PPARα were designed and used to knock-down or reduce the expression level of PPARα in human SKMU cells following procedures known to those skilled in the art (Brummelkamp et al., 2002, Science, 296: 550-553). Four sets of siRNA oligo were originally designed using GenBank accession number S74349 (human peroxisome proliferator activated receptor alpha, cDNA; PPARα) as the template, and the software, Target Finder (Ambion, Austin, Tex.). […] The sequences for the two sets of siRNA correspond to 907 bp to 927 bp (SEQ ID NO: 21, 5′-[…] A) and 1106 bp to 1126 bp of the cDNA (SEQ ID NO: 22, 5′-[…] T) relative to the first nucleotide of the start codon. The oligos were chemically synthesized by Ambion Inc. (Austin, Tex.). The universal negative control siRNA oligo was purchased from Ambion.
# Human primary skeletal muscle cells (hSKM, provided by Cambrex, Md.) were prepared the day before transfection at the density of 4.67×10^4 cells/per 60 mm dish (about 20% confluence). The cells were cultured at 37° C., 5% CO2 for 24 hrs with antibiotics-free SKGM medium (Cambrex, Md.). […]
# Again, total RNA was isolated from the cells and real-time PCR was performed and the expression levels of target genes of interest, such as Pa9, 13 and 21, were quantitatively measured using the RT-PCR technique described in Example 1.
# Pa21 gene [2] = assay: Pa21 gene expression by real-time RT-PCR in primary skeletal muscle cells; details: about 18-20 hours, vehicle control = 100
# Source text: as §1, §2, §3, §4
compound,measurement,setting,value
Cc1cccc(Nc2cc(Cl)nc(SCC(=O)O)n2)c1C [Wy14643],"Pa9 (W38098) gene expression, Percentage ± SE (%)",Pa9 gene; 10 uM,124 ± 7.2%
same,"Pa9 (W38098) gene expression, Percentage ± SE (%)",Pa9 gene; 50 uM,358 ± 6.9%
same,"Pa9 (W38098) gene expression, Percentage ± SE (%)",Pa9 gene; 250 uM,437 ± 17.3%
same,"Pa13 (N26311) gene expression, Percentage ± SE (%)",Pa13 gene; 3 uM,36.4 ± 6.4%
same,"Pa13 (N26311) gene expression, Percentage ± SE (%)",Pa13 gene; 10 uM,45.5 ± 10%
same,"Pa13 (N26311) gene expression, Percentage ± SE (%)",Pa13 gene; 30 uM,136.4 ± 38.7%
same,"Pa13 (N26311) gene expression, Percentage ± SE (%)",Pa13 gene; 100 uM,290.9 ± 54.1%
same,"Pa13 (N26311) gene expression, Percentage ± SE (%)",Pa13 gene; 300 uM,1672.7 ± 32%
same,induction of Pa21 gene expression (FIG. 7),Pa21 gene [1],no detectable induction
same,"Pa21 (H4960) gene expression, Percentage ± SE (%)",Pa21 gene [2]; 3 uM,130 ± 23.8%
same,"Pa21 (H4960) gene expression, Percentage ± SE (%)",Pa21 gene [2]; 10 uM,200 ± 48.5%
same,"Pa21 (H4960) gene expression, Percentage ± SE (%)",Pa21 gene [2]; 30 uM,310 ± 1.9%
same,"Pa21 (H4960) gene expression, Percentage ± SE (%)",Pa21 gene [2]; 100 uM,560 ± 16.6%
same,"Pa21 (H4960) gene expression, Percentage ± SE (%)",Pa21 gene [2]; 300 uM,2250 ± 11.7%
